Data set [1] addresses T1, human cytidine deaminase (hCDA) (Homo sapiens, UniProt P32320).
T1 construct: purchased Sigma-Aldrich SRP6372; host or cells: E. coli
Nature of the data set: UV kinetic assay of hCDA-catalysed 2'-deoxycytidine deamination. The data set is classed as biochemical. The settings on record: for Ki: substrate dC, competitive inhibition assumed. As to the method:
We monitored the hCDA-catalysed deamination of dC at 286 nm and analysed the kinetic profiles at various inhibitor concentrations using a global regression analysis of the kinetic data using Lambert’s W function. This method provides better estimates for the Michaelis–Menten constant (KM) and maximum velocity (Vmax) than nonlinear regression analysis of the initial rate (V0). […] Then, KM for the substrate and Ki for each inhibitor were calculated, assuming competitive nature of the inhibitors (Table 1).
We assumed that protonation of Va might result in some inhibition of hCDA. […] This means that the pH value of the assay should be close to pH 1.5 to see any meaningful effect of partially protonated compound Va, but hCDA would be denatured at this pH value. By lowering the pH value to 6.0, dZ (IIc) started to lose potency against hCDA (Table 1), which might be a result of protonation of the pyrimidine ring in dZ (IIc). […] At this pH value, less than 1 in 1,000 molecules of Va might be protonated, which could mean that protonated acid Va is a potent hCDA inhibitor.
Protein expression and purification
Recombinant human cytidine deaminase (hCDA) expressed in E.Coli was purchased form Sigma-Aldrich, product No SRP6372. […]
UV kinetic assay of hCDA-catalysed 2'-deoxycytidine
UV spectroscopy was used to monitor hCDA-catalysed deamination of 2'-deoxycytidine at 286 nm in 100 mM NaCl, 50 mM phosphate buffer at 25 °C at various pH as mentioned in the text. Cary 300 Bio UV-vis spectrometer from Varian was used. Enzymatic reactions were performed in a q uartz cuvette (0.1 cm). Deamination of 2'-deoxycytidine leads to a decrease in absorption at 286 nm (Figure […]
Figure S10. hCDA (27nM) catalysed deamination of 2'-deoxycitidine (⁓1.5 mM) in the absence (plus) and presence of 5 µM 2'-deoxyzebularine (IIc, asterisk) monitored by measuring absorbance at 286 nm over time in 100 mM NaCl, 1 mM TCEP, 50 mM phosphate buffer at 25 °C, at pH 7.4.
The uninhibited deamination (pluses, Figure S10) and the inhibited reaction start at about the same speed. As the reaction progresses, the inhibited reaction becomes slower, as its observed KM is larger than in the uninhibited case. In order to be able to visualize the fitted curves, only every 5th data point is plotted. The data was then fitted using Gnuplot to the integrated Michaelis Menten equation [10]: […]
(1 picture or pasted object on this page, not shown here) […]
where mm(t) calculates the current substrate concentration with respect to the time, t. The four parameters which are fitted are KM and vmax, the Michaelis-Menten constants, c is the initial substrate concentration and d is a baseline correction parameter. A summary of the measured inhibition […]
An increase in concentration of an inhibitor in enzymatic reaction leads to an increase in the observed KM value. The plot of observed KM values versus inhibitor concentration (Figures S11–S13) was then fitted with linear regression (y = ax + b) to derive the inhibition constant (Ki) using the following […]
Uncertainty of Ki was calculated using error-propagation method.
Figure S11. A plot of observed KM versus various concentration of dZ (IIc) in hCDA (27 nM) catalysed deamination of 2'-deoxycitidine in 100 mM NaCl, 1 mM TCEP, 50 mM phosphate buffer at 25 °C, at pH 7.4. […]

A short description of data set [2]: Estimation of pKa from change of λmax as a function of pH. The settings on record: estimated from change in λmax as a function of pH. The data set is classed as physicochemical. As for the experimental part: Figure S6. UV-vis spectra of compounds Va (A) and Vb (B) at 100 µM in 20 mM phosphate buffer, containing 10 %
Estimation of pKa of nucleoside Va
A change of λmax of nucleoside Va as a function of pH of the solution was plotted (Figure below) and
Figure S7. Change in λmax of nucleoside Va as a function of pH.
(1 picture or pasted object on this page, not shown here)

The nature of data set [3]: Stability in aqueous solution (NMR samples). The data set is classed as physicochemical. The settings on record: for stability in sodium phosphate buffer: pH 7.0, NMR samples, several days. From the text:
Catalytic hydrogenation is usually used for the removal of benzyl protecting groups. However, standard hydrogenation conditions using 10% Pd/C led to reduction of the C=C double bond in the nucleobase, providing nucleoside 24 (Scheme 3). To circumvent this problem, we used poisoned Pd catalyst (Lindlar’s catalyst, 5% Pd/CaCO3/3% Pb) and obtained the desired nucleoside 18. Individual anomers of nucleosides 18 and 24 were separated on a C18 column using a gradient of CH3CN in H2O. Removal of toluoyl groups was accomplished in aq NH3, providing pure α- and β-nucleoside of Va and Vc, respectively, carrying a negatively charged phosphinic acid group.

For another data set, the system named is A3 enzymes. Also noted: method as in PMID 30418757. The conditions noted are these: as the free nucleoside; cited from earlier work.

Read-outs that look alike come from different tables or passages of the source. Where only a bound is given, the exact number is not on record here.

T1 sequence (P32320 whole entry): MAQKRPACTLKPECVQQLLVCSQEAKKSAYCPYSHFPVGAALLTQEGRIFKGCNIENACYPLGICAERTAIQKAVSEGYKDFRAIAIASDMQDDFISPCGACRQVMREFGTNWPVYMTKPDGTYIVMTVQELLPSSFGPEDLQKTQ

For `O=C1CP(=O)(O)C=CN1C1CC(O)C(CO)O1` (stereo not drawn) [Va], the Ki result in data set [1] (pH 7.4, 25 °C) was “lack of inhibition”. Moreover, the pKa in data set [2] is no more than 1.5. In addition, the “stability in sodium phosphate buffer” value in data set [3] is listed as “no decomposition”. For the same molecule, the stability in water result in data set [3] (pH 7.4) is reported as “excellent stability”.
Regarding `O=c1ncccn1[C@H]1C[C@H](O)[C@@H](CO)O1` [dZ (IIc), 2'-deoxyzebularine, reference compound], the Km/Ki turned out to be 5.5 in data set [1] (pH 6.0) and 24 in data set [1] (pH 7.4). In addition, the Ki in data set [1] (pH 6.0, 25 °C, read-out: Ki) turned out to be 49 ± 13 µM. For the same molecule, the “inhibition of A3 enzymes” value in the data set with A3 enzymes was “does not inhibit”.
With `O=C1CP(=O)(O)C=CN1C1CC(O)C(CO)O1` (stereo not drawn) [β-anomer of Va], the Ki was 560 ± 100 µM in data set [1] (pH 4.7, 25 °C, read-out: Ki); “no inhibition” in data set [1] (pH 6.0, 25 °C); “no inhibition” in data set [1] (pH 7.4, 25 °C).
Consider `O=C1CP(=O)(O)CCN1C1CC(O)C(CO)O1` (stereo not drawn) [Vc], for which the “stability in sodium phosphate buffer” value in data set [3] is given as “no decomposition”.
With `Nc1ccn([C@H]2C[C@H](O)[C@@H](CO)O2)c(=O)n1` [dC, 2'-deoxycytidine, reference compound], the Km in data set [1] (pH 7.4, fitted in the experiment with inhibitor dZ (IIc), read-out: Km of dC) came to 260 ± 40 µM.
Turning to `NP1(=O)C=CN(C2CC(O)C(CO)O2)C(=O)C1` (stereo not drawn) [β-anomer of Vb], the Km/Ki in data set [1] (pH 7.4) turned out to be 30. Further, the Ki in data set [1] (pH 7.4, 25 °C, read-out: Ki) was 8 ± 1.9 µM.

By Ki is commonly meant the dissociation constant of the complex between target and ligand, obtained from inhibition or displacement. In general, pKa refers to the pH at which an ionisable group is half protonated. The Km is the concentration of substrate that gives half-maximal velocity.

These data come from article PMC11106675, “Synthesis of 1,4-azaphosphinine nucleosides and evaluation as inhibitors of human cytidine deaminase and APOBEC3A” (Beilstein Journal of Organic Chemistry, 2024).
